Source: ChEMBL document CHEMBL4665716, “Identification of a novel series of azabenzimidazole-derived inhibitors of spleen tyrosine kinase” (Bioorg Med Chem Lett, 2020)
≈ marks a conversion by molar mass, not a printed value.

What was measured:
SUD4 = experiment: Growth inhibition of human SU-DHL-4 cells; assay type: functional
[1] = molecular target: Tyrosine-protein kinase SYK (Homo sapiens, UniProt P43405); experiment: Inhibition of SYK (unknown origin)
[2] = molecular target: Voltage-gated inwardly rectifying potassium channel KCNH2 (Homo sapiens, UniProt Q12809); experiment: Inhibition of human ERG
Voltage-gated inwardly rectifying potassium channel KCNH2, sequence (Q12809 whole entry): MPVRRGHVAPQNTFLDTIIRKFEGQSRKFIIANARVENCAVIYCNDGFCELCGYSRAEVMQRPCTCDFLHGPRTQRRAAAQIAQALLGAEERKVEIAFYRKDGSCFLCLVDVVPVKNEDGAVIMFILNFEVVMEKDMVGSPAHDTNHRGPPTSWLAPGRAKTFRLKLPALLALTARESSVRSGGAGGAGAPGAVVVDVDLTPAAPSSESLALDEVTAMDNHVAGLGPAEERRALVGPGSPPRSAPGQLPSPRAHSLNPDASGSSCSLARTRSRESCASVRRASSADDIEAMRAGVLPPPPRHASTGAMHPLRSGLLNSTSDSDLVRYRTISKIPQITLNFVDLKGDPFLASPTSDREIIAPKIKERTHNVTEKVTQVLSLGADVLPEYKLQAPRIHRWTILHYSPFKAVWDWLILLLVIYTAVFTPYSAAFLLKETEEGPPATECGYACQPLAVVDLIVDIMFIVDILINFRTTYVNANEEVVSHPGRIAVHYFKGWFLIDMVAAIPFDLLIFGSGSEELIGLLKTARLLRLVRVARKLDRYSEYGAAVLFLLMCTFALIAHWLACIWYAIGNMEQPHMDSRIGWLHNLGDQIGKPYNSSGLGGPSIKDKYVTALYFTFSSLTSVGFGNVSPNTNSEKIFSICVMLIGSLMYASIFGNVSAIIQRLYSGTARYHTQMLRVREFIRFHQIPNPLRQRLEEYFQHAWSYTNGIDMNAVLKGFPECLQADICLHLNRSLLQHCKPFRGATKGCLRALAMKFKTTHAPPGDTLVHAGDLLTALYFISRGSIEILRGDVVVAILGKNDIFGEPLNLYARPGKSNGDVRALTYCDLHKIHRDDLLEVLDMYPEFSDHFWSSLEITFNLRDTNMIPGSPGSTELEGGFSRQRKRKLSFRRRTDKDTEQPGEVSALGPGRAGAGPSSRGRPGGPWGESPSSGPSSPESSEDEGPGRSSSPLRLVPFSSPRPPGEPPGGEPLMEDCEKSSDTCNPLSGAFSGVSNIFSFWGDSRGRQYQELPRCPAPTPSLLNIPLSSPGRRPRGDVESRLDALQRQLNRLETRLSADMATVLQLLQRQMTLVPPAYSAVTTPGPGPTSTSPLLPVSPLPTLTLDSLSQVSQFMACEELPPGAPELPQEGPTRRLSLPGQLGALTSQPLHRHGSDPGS

[3] = Intrinsic clearance in human liver microsome; assay type: ADME; details: microsomes
[4] = Intrinsic clearance in rat hepatocytes assessed per 10^6 cells; assay type: ADME, cell-based, Hepatocyte; details: read-out: CLH
[5] = Solubility of compound; assay type: physicochemical
[6] = Lipophilicity, logD of compound; assay type: physicochemical; details: octanol/water
[7] = Apparent permeability in human Caco-2 cells; assay type: ADME, cell-based

SMILES | IC50 [1] [nM] | GI50 (SUD4) [nM] | IC50 [2] [nM] | also measured
CNC(=O)c1ccc2c(c1)c(-c1nc3c(-n4cc(CN(C)C)cn4)ccnc3[nH]1)cn2C | 0.15 | 210 | – | –
COc1ccc(-c2nc3c(NCC4CCNCC4)c(Cl)cnc3[nH]2)cc1 | 5 | – | – | –
Cc1nn(-c2ccnc3[nH]c(-c4cccc5c4ccn5C)nc23)cc1CN1CC[C@H](O)C1 | 4.6 | 1200 | 27000 | –
CN(c1cnn(-c2ccnc3[nH]c(-c4cccc5c4ccn5C)nc23)c1)[C@@H]1CCOC[C@@H]1N | 5.5 | 1100 | 9200 | –
Cn1ccc2c(-c3nc4c(OCC5CCNCC5)c(Cl)cnc4[nH]3)cccc21 | 3.51 | – | – | –
CN(C)Cc1cnn(-c2ccnc3[nH]c(-c4cn(C)c5ccc(C(=O)N(C)C)cc45)nc23)c1 | 1.2 | 1700 | > 40000 | –
CNC(=O)c1cc2c(-c3nc4c(-n5cc(CN(C)C)cn5)ccnc4[nH]3)cn(C)c2cn1 | 0.18 | 870 | > 40000 | –
Cc1nnc(-c2ncn3ccc(Nc4nccc(-c5cc(CN(C)C)n(C)n5)n4)cc23)o1 | 0.21 | – | – | –
Cn1ccc2c(-c3nc4c(-n5cc(N[C@@H]6CCOC[C@@H]6N)cn5)ccnc4[nH]3)cccc21 | – | 210 | – | –

Continued, in another order:

IC50 [1] [nM] | SMILES | GI50 (SUD4) [nM] | IC50 [2] [nM] | also measured
1 | Cn1ccc2c(-c3nc4c(-n5cc(CN6CC[C@H](O)C6)cn5)ccnc4[nH]3)cccc21 | 1800 | > 40000 | –
0.83 | Cc1nn(-c2ccnc3[nH]c(-c4cccc5c4ccn5C)nc23)cc1CN(C)C | 770 | 2600 | CLint [3]: 37 µL/min/mg; hepatocyte CLint [4]: 127 µL/min/1e6 cells; solubility [5]: 89 µM (≈ 34.3 µg/mL); logD [6]: 2.8
0.077 | CN(C)Cc1cnn(-c2ccnc3[nH]c(-c4cn(C)c5ccc(S(C)(=O)=O)cc45)nc23)c1 | 440 | – | –
0.17 | CC(=O)Nc1ccc2c(c1)c(-c1nc3c(-n4cc(CN(C)C)c(C)n4)ccnc3[nH]1)cn2C | 200 | – | –
0.91 | Cc1nn(-c2ccnc3[nH]c(-c4cccc5c4ccn5C)nc23)cc1CN1CC[C@@H](O)C1 | 1100 | 31000 | Papp [7]: 0.63 ×10⁻⁶ cm/s; CLint [3]: 63 µL/min/mg; hepatocyte CLint [4]: 40 µL/min/1e6 cells; solubility [5]: < 20 µM; logD [6]: 2.9
0.098 | Cc1nnc(-c2ccc3c(c2)c(-c2nc4c(-n5cc(CN(C)C)c(C)n5)ccnc4[nH]2)cn3C)o1 | 290 | – | –
30 | Clc1cnc2[nH]c(-c3ccccc3)nc2c1OCC1CCNCC1 | – | – | –
2.8 | CN(C)Cc1cc(-c2ccnc3[nH]c(-c4cccc5c4ccn5C)nc23)nn1C | 1000 | 13000 | –
0.48 | Cn1ccc2c(-c3nc4c(-n5cc(CN6CC[C@@H](O)C6)cn5)ccnc4[nH]3)cccc21 | 1200 | > 33000 | –
